Measured values reported in patent EP2719696A1, “NOVEL KINASE INHIBITORS” (Asinex Limited, priority 2011, dated 2012).

Columns and labels:
[1] = biological target: PDGFR-α (Homo sapiens, UniProt P16234); assay: Kinase inhibition assay (ELISA); type: biochemical; details: 1 µM ATP
Procedure: (§1) To determine the interaction of our compounds with tyrosine kinases: PDGFR-α, cKIT, PDGFR-β, VEGFR-2 we used enzyme-linked immunosorbent assay (ELISA).
(§2) Determination plates preparation: The plates are processed by neutravidine for 2 h at 30°C. After washing thrice with TBS/0.1% Tween-20 and blocking with 1% BSA/TBS for 1 h at room temperature (RT) 96-well microtiter plates were washed thrice with TBS/0.1% Tween-20 again.
(§3) Reaction: After addition test compounds (in DMSO, DMSO final concentration - 5%) to reaction buffer (20 mM HEPES, pH 7.5, 15 mM MgCl2, 3 mM MnCl2, 2 mM DTT, 0.2 mM Na3VO4, 0.005% Triton X-100; PDGFR-α,: 0.05 µg/ml, 0.5 µg/ml Poly(G,T)-biotin; PDGFR-β: 0.05 µg/ml, 1 µg/ml Poly(G,T)-biotin; c-KIT: 0.03 µg/ml, 0.15 µg/ml Poly(G,T)-biotin; VEGFR-2: 0.07 µg/ml, 0.05 µg/ml Poly(G,T)-biotin) and preincubation of reaction for 10 min at RT and intensive agitation, ATP solution (PDGFR-α, - 1 µM, PDGFR-β - 0.5 µM, c-KIT - 60 µM, VEGFR-2: - 1.5 µM ATP in reaction buffer per well) was added to initiate reaction. Following incubation of mixture for 1 h at 30°C and intensive agitation the reaction was stopped by stop solution (20 mM HEPES, pH 7.5, 50 mM EDTA).
(§4) Kinase activity determination: The reaction mixture was transferred to determination plate. After mix incubation for 1 h at RT and intensive agitation the plates were washed thrice with TBS/0.1% Tween-20. Following mouse monoclonal 0.05 µg/ml Anti-p-Tyr (PY20) HRP antibodies (Santa Cruz Biotechnology) in PBS/BSA were added for 1 h at RT and intensive agitation. After washing, antibody binding was detected by tetramethylbenzidine (TMB) color development (Sigma). Measurement of A450 nm was carried out after addition of H2SO4

[2] = biological target: cKIT (Homo sapiens, UniProt P10721); assay: Kinase inhibition assay (ELISA); type: biochemical; details: 60 µM ATP
Procedure: as §1, §2, §3, §4

[3] = biological target: VEGFR-2 (Homo sapiens, UniProt P35968); assay: Kinase inhibition assay (ELISA); type: biochemical; details: 1.5 µM ATP
Procedure: as §1, §2, §3, §4

[4] = test system: A2780; assay: MTT proliferation / cytotoxicity assay; type: cell-based, human; details: Homo sapiens, A2780, 72 h
Procedure: (§5) Cell culture. The human cancer cell lines A172, A375, A2780 and U251 were purchased from the American Type Culture Collection. All cells were routinely maintained in DMEM containing 10% fetal bovine serum (Omega Scientific), at 37°C in 5% C02.
(§6) Proliferation assay Inhibition of cell A172, A375, A2780 and U251 cell proliferation was assessed by a MTT assay (MTT = Thiazolyl Blue Tetrazolium Bromide) . Cells were inoculated into 96-well microtiter plates containing 0.5% fetal calf serum and incubated at 37°C, 5% CO2, 95% air, and 100% relative humidity for 24 h prior to addition of testing compounds. Following compounds addition, the plates were incubated for an additional 72 h before processing to measure the cell population. Each compound was tested at eight different concentrations in triplicate, as was a control sample. Growth inhibition of 50% (IC50) is calculated by analysis of the data in Prizm3.4 software.
(§7) Table 8 lists IC50 values for inhibition of growth of several cancer cell lines, including the glioblastoma cell lines A172 and U251, measured in a MTT cytotoxicity assay. Table 8. Data of cytotoxicity assay (MTT) for several cancer cell lines, IC50 [µM]

[5] = test system: A375; assay: MTT proliferation / cytotoxicity assay; type: cell-based, human; details: Homo sapiens, A-375, 72 h
Procedure: as §5, §6, §7

[6] = test system: U251; assay: MTT proliferation / cytotoxicity assay; type: cell-based, human; details: Homo sapiens, U-251, 72 h, glioblastoma cell line
Procedure: as §5, §6, §7

[7] = test system: A172; assay: MTT proliferation / cytotoxicity assay; type: cell-based, human; details: Homo sapiens, A 172, 72 h, glioblastoma cell line
Procedure: as §5, §6, §7

PDGFR-α, sequence (P16234 24-1089, species assumed): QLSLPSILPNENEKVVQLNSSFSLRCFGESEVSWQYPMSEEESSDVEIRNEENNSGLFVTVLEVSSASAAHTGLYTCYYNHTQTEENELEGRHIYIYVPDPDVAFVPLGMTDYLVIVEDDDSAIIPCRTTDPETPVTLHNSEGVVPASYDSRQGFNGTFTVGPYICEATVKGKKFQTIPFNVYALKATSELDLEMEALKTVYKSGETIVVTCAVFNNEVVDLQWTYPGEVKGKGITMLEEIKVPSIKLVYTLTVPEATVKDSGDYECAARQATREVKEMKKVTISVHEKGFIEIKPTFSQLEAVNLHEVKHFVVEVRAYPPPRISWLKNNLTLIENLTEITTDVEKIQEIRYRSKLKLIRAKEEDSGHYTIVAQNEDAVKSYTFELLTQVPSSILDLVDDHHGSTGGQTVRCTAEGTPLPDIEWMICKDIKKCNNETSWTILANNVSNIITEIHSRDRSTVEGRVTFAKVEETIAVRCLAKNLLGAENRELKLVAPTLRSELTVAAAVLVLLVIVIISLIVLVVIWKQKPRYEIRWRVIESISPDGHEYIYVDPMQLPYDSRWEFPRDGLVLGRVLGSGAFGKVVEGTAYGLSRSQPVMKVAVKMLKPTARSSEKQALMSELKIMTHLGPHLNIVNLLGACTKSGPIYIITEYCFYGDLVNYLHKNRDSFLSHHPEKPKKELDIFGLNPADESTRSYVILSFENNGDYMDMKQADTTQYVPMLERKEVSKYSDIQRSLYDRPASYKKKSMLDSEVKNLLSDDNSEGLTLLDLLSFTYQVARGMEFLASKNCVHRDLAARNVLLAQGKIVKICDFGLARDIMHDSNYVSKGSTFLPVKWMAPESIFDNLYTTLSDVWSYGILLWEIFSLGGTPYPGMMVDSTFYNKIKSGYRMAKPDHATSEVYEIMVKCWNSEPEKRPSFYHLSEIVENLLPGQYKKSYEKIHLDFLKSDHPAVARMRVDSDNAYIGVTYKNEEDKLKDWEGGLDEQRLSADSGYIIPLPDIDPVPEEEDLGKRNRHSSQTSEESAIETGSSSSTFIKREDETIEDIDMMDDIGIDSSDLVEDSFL
cKIT, sequence (P10721 26-976): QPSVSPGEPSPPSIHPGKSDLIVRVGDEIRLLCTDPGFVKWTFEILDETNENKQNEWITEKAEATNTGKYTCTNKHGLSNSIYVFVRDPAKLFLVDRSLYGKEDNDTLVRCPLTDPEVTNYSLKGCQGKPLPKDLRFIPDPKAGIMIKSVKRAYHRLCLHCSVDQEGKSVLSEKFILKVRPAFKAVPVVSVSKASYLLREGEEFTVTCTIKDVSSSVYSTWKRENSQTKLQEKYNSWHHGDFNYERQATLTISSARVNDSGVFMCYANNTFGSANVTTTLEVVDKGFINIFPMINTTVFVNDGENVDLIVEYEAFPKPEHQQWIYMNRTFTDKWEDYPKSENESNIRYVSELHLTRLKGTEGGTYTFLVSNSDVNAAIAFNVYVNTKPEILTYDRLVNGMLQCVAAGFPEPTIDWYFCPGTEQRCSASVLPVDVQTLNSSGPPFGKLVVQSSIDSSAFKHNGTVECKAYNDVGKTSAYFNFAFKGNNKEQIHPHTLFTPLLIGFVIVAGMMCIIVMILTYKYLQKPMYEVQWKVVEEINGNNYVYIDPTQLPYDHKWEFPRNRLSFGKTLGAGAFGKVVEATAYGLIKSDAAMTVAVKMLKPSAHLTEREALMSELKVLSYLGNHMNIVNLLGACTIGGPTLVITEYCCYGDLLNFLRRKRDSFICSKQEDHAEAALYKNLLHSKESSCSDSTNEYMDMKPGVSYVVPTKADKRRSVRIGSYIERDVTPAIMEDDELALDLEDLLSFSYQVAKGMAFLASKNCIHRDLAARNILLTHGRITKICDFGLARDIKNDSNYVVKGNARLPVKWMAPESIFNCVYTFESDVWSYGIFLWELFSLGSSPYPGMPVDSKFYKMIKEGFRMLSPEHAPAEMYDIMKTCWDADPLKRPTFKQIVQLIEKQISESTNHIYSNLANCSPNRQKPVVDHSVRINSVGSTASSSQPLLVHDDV
VEGFR-2, sequence (P35968 20-1356, species assumed): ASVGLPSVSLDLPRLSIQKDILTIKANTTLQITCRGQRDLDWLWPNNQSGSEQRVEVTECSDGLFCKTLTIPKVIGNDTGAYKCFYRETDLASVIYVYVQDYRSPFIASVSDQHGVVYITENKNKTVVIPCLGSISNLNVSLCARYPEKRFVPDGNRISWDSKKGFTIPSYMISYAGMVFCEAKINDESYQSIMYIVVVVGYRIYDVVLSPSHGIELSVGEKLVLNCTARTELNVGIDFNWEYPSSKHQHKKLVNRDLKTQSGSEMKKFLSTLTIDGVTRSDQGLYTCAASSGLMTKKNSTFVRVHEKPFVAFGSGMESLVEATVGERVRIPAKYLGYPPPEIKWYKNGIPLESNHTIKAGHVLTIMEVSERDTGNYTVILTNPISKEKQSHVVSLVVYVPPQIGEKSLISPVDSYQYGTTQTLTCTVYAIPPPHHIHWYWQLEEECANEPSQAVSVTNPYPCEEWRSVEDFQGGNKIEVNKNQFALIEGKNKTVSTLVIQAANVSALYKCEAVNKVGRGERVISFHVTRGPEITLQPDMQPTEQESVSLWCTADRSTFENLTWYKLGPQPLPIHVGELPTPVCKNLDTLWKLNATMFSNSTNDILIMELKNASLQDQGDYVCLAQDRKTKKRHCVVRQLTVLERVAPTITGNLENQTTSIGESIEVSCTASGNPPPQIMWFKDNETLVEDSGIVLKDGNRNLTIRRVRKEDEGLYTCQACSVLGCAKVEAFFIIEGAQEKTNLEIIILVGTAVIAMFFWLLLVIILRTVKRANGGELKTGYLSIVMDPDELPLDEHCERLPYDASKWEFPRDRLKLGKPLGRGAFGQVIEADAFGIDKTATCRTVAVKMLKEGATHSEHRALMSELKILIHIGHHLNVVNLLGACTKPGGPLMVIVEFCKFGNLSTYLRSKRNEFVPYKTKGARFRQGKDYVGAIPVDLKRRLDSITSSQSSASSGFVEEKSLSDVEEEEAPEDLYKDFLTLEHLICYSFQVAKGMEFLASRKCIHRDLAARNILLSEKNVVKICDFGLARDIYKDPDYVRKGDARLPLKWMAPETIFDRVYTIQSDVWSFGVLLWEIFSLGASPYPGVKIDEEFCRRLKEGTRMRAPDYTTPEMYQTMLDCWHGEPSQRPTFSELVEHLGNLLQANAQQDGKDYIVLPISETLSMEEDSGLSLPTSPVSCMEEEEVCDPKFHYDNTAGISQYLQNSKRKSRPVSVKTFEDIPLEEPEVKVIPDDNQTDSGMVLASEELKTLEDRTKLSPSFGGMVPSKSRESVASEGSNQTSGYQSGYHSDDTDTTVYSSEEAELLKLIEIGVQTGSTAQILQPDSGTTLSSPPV

| IC50 [1] | IC50 [2] | IC50 [3] | SMILES | IC50 [4] | IC50 [5] | IC50 [6] | IC50 [7] |
| --- | --- | --- | --- | --- | --- | --- | --- |
| < 10 nM | < 10 nM | > 10 nM | Fc1ccc(-c2cnc(Nc3cc(CC4CCNCC4)ccn3)s2)cc1 [Example 001, [5-(4-Fluoro-phenyl)-thiazol-2-yl]-(4-piperidin-4-ylmethyl-pyridin-2-yl)-amine] | > 1 µM | > 1 µM | > 1 µM | > 10 µM |
| < 10 nM | < 10 nM | > 10 nM | CC(=O)N1CCC(Cc2ccnc(Nc3ncc(-c4ccc(F)cc4)s3)c2)CC1 [Example 002, 1-(4-{2-[5-(4-Fluoro-phenyl)-thiazol-2-ylamino]-pyridin-4-ylmethyl}-piperidin-1-yl)-ethanone] | > 1 µM | > 1 µM | > 10 µM | > 1 µM |
|  |  |  | CN1CCC(Cc2ccnc(Nc3ncc(-c4ccc(F)cc4)s3)c2)CC1 [Example 004, [5-(4-Fluoro-phenyl)-thiazol-2-yl]-[4-(1-methyl-piperidin-4-ylmethyl)-pyridin-2-yl]-amine] | > 1 µM | > 1 µM | > 10 µM | > 1 µM |
|  |  |  | CN1CCOCC(Cc2ccnc(Nc3ncc(-c4ccc(F)cc4)s3)c2)C1 (stereo not drawn) [Example 010, [5-(4-Fluoro-phenyl)-thiazol-2-yl]-[4-(4-methyl-[1,4]oxazepan-6-ylmethyl)-pyridin-2-yl]-amine] | > 1 µM | > 1 µM | > 10 µM | > 1 µM |
| < 10 nM | > 10 nM | > 10 nM | c1ccc(-c2cnc(Nc3cc(CC4CCNC4)ccn3)s2)cc1 (stereo not drawn) [Example 014, (5-Phenyl-thiazol-2-yl)-(4-pyrrolidin-3-ylmethyl-pyridin-2-yl)-amine] |  |  |  |  |
| < 10 nM | < 10 nM | > 10 nM | CNC1CCC(Cc2ccnc(Nc3ncc(-c4ccc(F)cc4)s3)c2)CC1 (stereo not drawn) [Example 016, [5-(4-Fluoro-phenyl)-thiazol-2-yl]-[4-(4-methylamino-cyclohexylmethyl)-pyridin-2-yl]-amine] | > 1 µM |  |  | > 1 µM |
| < 10 nM | < 10 nM | > 10 nM | Fc1ccc(-c2cnc(Nc3cc(CC4CCC5CNCC54)ccn3)s2)cc1 (stereo not drawn) [Example 018, [5-(4-Fluoro-phenyl)-thiazol-2-yl]-[4-(octahydro-cyclopenta[c]pyrrol-4-ylmethyl)-pyridin-2-yl]-amine] | > 1 µM |  |  | > 1 µM |
| < 10 nM | < 10 nM | > 100 nM | Fc1ccc(-c2cnc(Nc3cccc(CC4CCC5CNCC54)n3)s2)cc1 (stereo not drawn) [Example 020, [5-(4-Fluoro-phenyl)-thiazol-2-yl]-[6-(octahydro-cyclopenta[c]pyrrol-4-ylmethyl)-pyridin-2-yl]-amine] | < 1 µM |  |  | ≤ 1 µM |
| < 10 nM | > 10 nM | > 10 nM | Fc1ccc(-c2cnc(Nc3cccc(CC4COC5(CCNCC5)C4)n3)s2)cc1 (stereo not drawn) [Example 024, [5-(4-Fluoro-phenyl)-thiazol-2-yl]-[6-(1-oxa-8-aza-spiro[4.5]dec-3-ylmethyl)-pyridin-2-yl]-amine] | ≤ 1 µM |  |  | ≤ 1 µM |
|  |  |  | c1ccc(-c2cnc(Nc3cc(CC4CCCNCC4)ccn3)s2)cc1 (stereo not drawn) [Example 026, (4-Azepan-4-ylmethyl-pyridin-2-yl)-(5-phenyl-thiazol-2-yl)-amine] | ≤ 1 µM | > 1 µM | > 10 µM | > 1 µM |
| < 10 nM | > 10 nM | > 10 nM | c1ccc(-c2cnc(Nc3cc(C4CCCN4)ccn3)s2)cc1 (stereo not drawn) [Example 027, (5-Phenyl-thiazol-2-yl)-(4-pyrrolidin-2-yl-pyridin-2-yl)-amine] |  |  |  |  |
| > 10 nM | < 10 nM | > 100 nM | Cc1cc(Nc2ncc(-c3ccccc3)s2)nc(C2CCN(CCO)CC2)n1 [Example 029, 2-{4-[4-Methyl-6-(5-phenyl-thiazol-2-ylamino)-pyrimidin-2-yl]-piperidin-1-yl}-ethanol] | ≤ 1 µM |  | > 1 µM | ≤ 1 µM |
| > 10 nM | > 100 nM | > 100 nM | OCCN1CCC(c2cncc(Nc3ncc(-c4ccccc4)s3)n2)CC1 [Example 030, 2-{4-[6-(5-Phenyl-thiazol-2-ylamino)-pyrazin-2-yl]-piperidin-1-yl}-ethanol] |  |  |  |  |
| < 10 nM | > 10 nM | > 10 nM | Cc1nc(Nc2ncc(-c3ccccc3)s2)cc(C2CCN(C(=O)C(C)(C)N)CC2)n1 [Example 031, 2-Amino-2-methyl-1-{4-[2-methyl-6-(5-phenyl-thiazol-2-ylamino)-pyrimidin-4-yl]-piperidin-1-yl}-propan-1-one] | > 1 µM |  | > 10 µM | > 1 µM |
|  | > 100 nM |  | CCCc1cnc(Nc2cccc(C3CCN(C(=O)C(C)(C)N)CC3)n2)s1 [Example 041, 2-Amino-2-methyl-1-[6-(5-propyl-thiazol-2-ylamino)-3',4',5',6'-tetrahydro-2'H-[2,4']bipyridinyl-1'-yl]-propan-1-one] | ≤ 1 µM | > 1 µM |  |  |
| < 10 nM | > 10 nM | > 100 nM | OCCN1CCC(c2cccc(Nc3ncc(-c4ccnc(Cl)c4)s3)n2)CC1 [Example 046, 2-{6-[5-(2-Chloro-pyridin-4-yl)-thiazol-2-ylamino]-3',4',5',6'-tetrahydro-2'H-[2,4']bipyridinyl-1'-yl}-ethanol] |  |  |  |  |
| > 100 nM | > 1000 nM | > 100 nM | CC(C)(C)Cc1cnc(Nc2cccc(C3CCN(C(=O)C(C)(C)N)CC3)n2)s1 [Example 047, 2-Amino-1-{6-[5-(2,2-dimethylpropyl)-thiazol-2-ylamino]-3',4',5',6'-tetrahydro-2'H-[2,4']bipyridinyl-1'-yl}-2-methyl-propan-1-one] | ≤ 1 µM | > 1 µM |  |  |
| > 10 nM | > 1000 nM | > 100 nM | OCCN1CCC(c2ccnc(Nc3ncc(/C=C/c4ccccc4)s3)c2)CC1 [Example 048, 2-{2'-[5-((E)-Styryl)-thiazol-2-ylamino]-3,4,5,6-tetrahydro-2H-[4,4']bipyridinyl-1-yl}-ethanol] |  |  |  |  |

| SMILES | IC50 [1] | IC50 [2] | IC50 [3] | IC50 [4] | IC50 [5] | IC50 [6] | IC50 [7] |
| --- | --- | --- | --- | --- | --- | --- | --- |
| OCCN1CCC(CO)(c2cccc(Nc3ncc(-c4ccccc4)s3)n2)CC1 [Example 042, 2-[4'-Hydroxymethyl-6-(5-phenyl-thiazol-2-ylamino)-3',4',5',6'-tetrahydro-2'H-[2,4']bipyridinyl-1'-yl]-ethanol] | > 100 nM | > 100 nM | > 10000 nM |  |  |  |  |
| CN(C)CC1(c2cccc(Nc3ncc(-c4ccccc4)s3)n2)CCN(CCO)CC1 [Example 043, 2-[4'-Dimethylaminomethyl-6-(5-phenyl-thiazol-2-ylamino)-3',4',5',6'-tetrahydro-2'H-[2,4']bipyridinyl-1'-yl]-ethanol] | > 1000 nM | > 10000 nM | > 10000 nM |  |  |  |  |
| CC(C)(C)OC(=O)N1CCC(c2cccc(Nc3ncc(C#CC4CC4)s3)n2)CC1 [Example 045, 6-(5-Cyclopro-pylethynyl-thiazol-2-ylamino)-3',4',5',6'-tetrahydro-2'H-[2,4']bipyridinyl-1'-carboxylic acid tert-butyl ester] | > 10000 nM | > 10000 nM | > 10 nM |  |  |  |  |
